A word on the IC50: it is the concentration at which inhibition is half-maximal.

These results are taken from paper PMC3769973 (Organic & biomolecular chemistry, 2011).

The target in one data set is proteasome β5 subunit (Homo sapiens, UniProt P28074). Put plainly: Competition assay versus MVB003 in HEK293T lysate, β5 band. It counts as biochemical.
The target in data set [1] is T1, proteasome β1 subunit (Homo sapiens, UniProt P28072). Kind of data set: Competition assay versus MVB003 in HEK293T lysate, β1 band. It counts as biochemical.
The target in another data set is proteasome β2 subunit (Homo sapiens, UniProt Q99436). Kind of data set: Competition assay versus MVB003 in HEK293T lysate, β2 band. It counts as biochemical.
The target in data set [2] is T1, proteasome β1 subunit. Kind of data set: Competition assay versus MVB003 in living HEK cells, β1 band. The class given is cell-based. As to conditions: inhibitor 4 h.
Data set [3] deals with proteasome in living HEK cells.

As for `CC(C)C[C@H](NC(=O)[C@@H](NC(=O)N[C@H](C(=O)OC(C)(C)C)C(C)C)C(C)C)C(=O)[C@@]1(C)CO1` [Compound 5, tBuO-Val-urea-Val-Leu-EK2], the IC50 is approximately 50000 nM at proteasome β5 subunit, 460 nM at proteasome β1 subunit [1] and more than 50000 nM at proteasome β2 subunit. The “Potency in living HEK cells relative to NC001” value on proteasome β1 subunit [2] is listed as “fivefold higher potency”.
`CC(C)C[C@H](NC(=O)[C@@H](NC(=O)N[C@H](C(=O)O)C(C)C)C(C)C)C(=O)[C@@]1(C)CO1` [Compound 6, HO-Val-urea-Val-Leu-EK]: the IC50 was more than 50000 nM on proteasome β5 subunit, 1400 nM on proteasome β1 subunit [1] and more than 50000 nM at proteasome β2 subunit.
Consider `CC(C)C[C@H](NC(=O)[C@@H](NC(=O)N[C@H](C(=O)NCc1ccccc1)C(C)C)C(C)C)C(=O)[C@@]1(C)CO1` [Compound 7, Benzylamide-Val-urea-Val-Leu-EK], for which the IC50 was 2900 nM on proteasome β5 subunit, 520 nM on proteasome β1 subunit [1] and more than 50000 nM on proteasome β2 subunit.
For the compound `CC(C)C[C@H](NC(=O)[C@@H](NC(=O)N[C@H](C(=O)OC(C)(C)C)C(C)C)C(C)C)C(=O)N[C@@H](CC(C)C)C(=O)[C@@]1(C)CO1` [Compound 13, tBuO-Val-urea-Val-Leu2-EK], the IC50 at proteasome β5 subunit was 16 nM; on proteasome β1 subunit [1] it was 1300 nM; at proteasome β2 subunit, 690 nM. Besides, the “Fold lower concentration for β5 inhibition compared to SylA” value on proteasome β5 subunit (HEK lysate, Fig. 7) is given as “about 100 fold”. Further, the “Inhibition of β5 in HEK lysate” value at proteasome β5 subunit (HEK lysate, at 100 nM inhibitor, Fig. 7) was “fully inhibits”. Moreover, the Cell permeability entry in data set [3] was “cell permeable”.
At proteasome β5 subunit, `CC(C)C[C@H](NC(=O)[C@@H](NC(=O)N[C@H](C(=O)O)C(C)C)C(C)C)C(=O)N[C@@H](CC(C)C)C(=O)[C@@]1(C)CO1` [Compound 14, HO-Val-urea-Val-Leu2-EK] had an IC50 of 480 nM.
`CC(C)C[C@H](NC(=O)[C@@H](NC(=O)N[C@H](C(=O)NCc1ccccc1)C(C)C)C(C)C)C(=O)N[C@@H](CC(C)C)C(=O)[C@@]1(C)CO1` [Compound 15, Benzylamide-Val-urea-Val-Leu2-EK]: the “Fold lower concentration for β5 inhibition compared to SylA” value on proteasome β5 subunit (HEK lysate, Fig. 7) is “about 100 fold”. In addition, in data set [3], the Cell permeability entry is “cell permeable”.
Take `CCCCCCCCCCNC(=O)N[C@H](C(=O)N[C@@H](CC(C)C)C(=O)N[C@@H](CC(C)C)C(=O)[C@@]1(C)CO1)C(C)C` [Compound 16, Decyl-urea-Val-Leu2-EK]: the IC50 on proteasome β1 subunit [1] and on proteasome β2 subunit was more than 50000 nM throughout.
